Where “and” joins values, the source holds several entries; their conditions need not be identical. Identical values can stand only once.
Tests used:
Tryptase = Tryptase (Homo sapiens, UniProt Q9BZJ3+Q15661+Q9NRR2); assay: Inhibition of human tryptase.; assay type: protein assay
Serine protease 1 = Serine protease 1 (Homo sapiens, UniProt P07477); assay: Compound was tested for inhibition of human trypsin; design: reference not given here
[1] = target: Urokinase-type plasminogen activator (Homo sapiens, UniProt P00749); assay: Compound was tested for inhibition of human urokinase-type plasminogen activator

Sequence of Serine protease 1 (P07477 whole entry): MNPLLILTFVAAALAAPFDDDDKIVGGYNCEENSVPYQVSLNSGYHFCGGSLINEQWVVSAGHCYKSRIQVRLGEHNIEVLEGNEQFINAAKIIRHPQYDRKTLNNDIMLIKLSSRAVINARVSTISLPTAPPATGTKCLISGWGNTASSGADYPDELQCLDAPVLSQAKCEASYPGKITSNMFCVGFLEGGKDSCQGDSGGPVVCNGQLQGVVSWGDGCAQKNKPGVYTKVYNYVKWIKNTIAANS

Row | SMILES | IC50 (Tryptase) | selectivity ratio (Serine protease 1) | selectivity ratio [1]
1 | O=C(CN1CCCCC(NC(=O)c2ccc(-c3ccccc3)cc2)C1=O)Nc1ccc2c(c1)CNCC2 (centres undefined) | > 33 µM | – | –
2 | NC1CCCc2ccc(NC(=O)CN3CCCCC(NC(=O)c4ccc(-c5ccccc5)cc4)C3=O)cc21 (centres undefined) | > 33 µM | – | –
3 | NCc1cccc(NC(=O)CN2CCCCC(NC(=O)c3ccc(C4CCCCC4)cc3)C2=O)c1 (centres undefined) | 0.98 µM | – | –
4 | NCc1cccc(NC(=O)CN2CCCCC(NC(=O)c3ccc(-c4ccc(Cl)c(Cl)c4)cc3)C2=O)c1 (centres undefined) | 2.1 µM | – | –
5 | NCCCCCNC(=O)CN1CCCCC(NC(=O)c2ccc(-c3ccccc3)cc2)C1=O (centres undefined) | 12 µM | – | –
6 | NCc1cccc(NC(=O)CN2CCCCC(NC(=O)c3cnc4ccccc4c3)C2=O)c1 (centres undefined) | 15 µM | – | –
7 | Nc1ccc(CNC(=O)CN2CCCCC(NC(=O)c3ccc(-c4ccccc4)cc3)C2=O)cc1 (centres undefined) | > 33 µM | – | –
8 | NCc1cccc(NC(=O)CN2CCCCC(NC(=O)Cc3ccc(-c4ccccc4)cc3)C2=O)c1 (centres undefined) | 5.2 µM | – | –
9 | CCN(CC)Cc1cccc(NC(=O)CN2CCCCC(NC(=O)c3ccc(-c4ccccc4)cc3)C2=O)c1 (centres undefined) | > 33 µM | – | –
10 | CCc1ccc(C(=O)NC2CCCCN(CC(=O)Nc3cccc(CN)c3)C2=O)cc1 (centres undefined) | 4.6 µM | – | –
11 | NCCc1ccc(NC(=O)CN2CCCCC(NC(=O)c3ccc(-c4ccccc4)cc3)C2=O)cc1 (centres undefined) | 11 µM | – | –
12 | NCc1ccc(NC(=O)CN2CCCCC(NC(=O)c3ccc(-c4ccccc4)cc3)C2=O)cc1 (centres undefined) | 3.6 µM | – | –
13 | O=C(CN1CCCCC(NC(=O)c2ccc(-c3ccccc3)cc2)C1=O)NCC1CCNCC1 (centres undefined) | > 33 µM | – | –
14 | NCc1ccc(Cl)c(NC(=O)CN2CCCCC(NC(=O)c3ccc(-c4ccccc4)cc3)C2=O)c1 (centres undefined) | 0.038 µM | 360 | > 870
15 | NCc1cccc(NC(=O)CN2CCCCC(NC(=O)CC(c3ccccc3)c3ccccc3)C2=O)c1 (centres undefined) | 0.2 µM | > 170 | > 170
16 | NCc1cccc(NC(=O)CN2CCCCC(NC(=O)CCCCc3ccccc3)C2=O)c1 (centres undefined) | 2.9 µM | – | –
17 | COc1ccc(CN)cc1NC(=O)CN1CCCCC(NC(=O)c2ccc(-c3ccccc3)cc2)C1=O (centres undefined) | 0.89 µM | – | –
18 | NCc1ccccc1NC(=O)CN1CCCCC(NC(=O)c2ccc(-c3ccccc3)cc2)C1=O (centres undefined) | > 33 µM | – | –
19 | NCc1cccc(NC(=O)CN2CCCCC(NC(=O)c3ccc(Cc4ccccc4)cc3)C2=O)c1 (centres undefined) | 0.98 µM | – | –

The next lines start with results.

Row | IC50 (Tryptase) | SMILES | selectivity ratio (Serine protease 1) | selectivity ratio [1]
20 | 1.3 µM | Cc1ccc(-c2ccc(C(=O)NC3CCCCN(CC(=O)Nc4cccc(CN)c4)C3=O)cc2)cc1 (centres undefined) | – | –
21 | > 33 µM | Nc1cccc(CNC(=O)CN2CCCCC(NC(=O)c3ccc(-c4ccccc4)cc3)C2=O)c1 (centres undefined) | – | –
22 | > 33 µM | CNCc1cccc(NC(=O)CN2CCCCC(NC(=O)c3ccc(-c4ccccc4)cc3)C2=O)c1 (centres undefined) | – | –
23 | 0.25 µM and > 0.25 µM | NCc1cccc(NC(=O)CN2CCCCC(NC(=O)c3ccc(-c4ccccc4)cc3)C2=O)c1 (centres undefined) | > 130 | > 130
24 | 4.6 µM | NCc1cccc(NC(=O)CN2CCCCC(NC(=O)COc3ccc4ccccc4c3)C2=O)c1 (centres undefined) | – | –
25 | 13 µM | NCc1cccc(CNC(=O)CN2CCCCC(NC(=O)c3ccc(-c4ccccc4)cc3)C2=O)c1 (centres undefined) | – | –
26 | 0.074 µM | Cc1ccc(CN)cc1NC(=O)CN1CCCCC(NC(=O)c2ccc(-c3ccccc3)cc2)C1=O (centres undefined) | > 450 | > 450
27 | > 33 µM | NCCCCNC(=O)CN1CCCCC(NC(=O)c2ccc(-c3ccccc3)cc2)C1=O (centres undefined) | – | –
28 | > 33 µM | NC(=O)c1cccc(NC(=O)CN2CCCCC(NC(=O)c3ccc(-c4ccccc4)cc3)C2=O)c1 (centres undefined) | – | –
29 | 2.9 µM | CCc1ccc(-c2ccc(C(=O)NC3CCCCN(CC(=O)Nc4cccc(CN)c4)C3=O)cc2)cc1 (centres undefined) | – | –
30 | 12 µM | NCC1CCC(NC(=O)CN2CCCCC(NC(=O)c3ccc(-c4ccccc4)cc3)C2=O)CC1 (centres undefined) | – | –
31 | > 33 µM | NCCCCCCNC(=O)CN1CCCCC(NC(=O)c2ccc(-c3ccccc3)cc2)C1=O (centres undefined) | – | –
